Experimental findings from patent US4175081A, “5-Substituted thiadiazole ureas” (priority 1977, dated 1979) are described below.

As usually defined, the pest or weed control is the degree to which the test organism was suppressed or injured, in per cent. A low value points to weak suppression.

Assay [1] concerns Crabgrass (CG). As to the kind of experiment: Post-emergence herbicide test. The format is in vivo, Digitaria sanquinalis. Particulars: Digitaria sanguinalis, post-emergence, 336 h, two weeks after treatment; for pest or weed control at 4483.4 g/ha: 4 lb/acre. The essentials:
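Crabgrass (Digitaria sanquinalis) was surface seeded individually in 3' plastic pots of potting soil, covered with screened soil, and watered by sub-irrigation in greenhouse trays. Planting was staggered so seedlings reached the target stage together. Post-emergence sprays were applied in a hood with a removable belt and fixed nozzle, and control was visually rated two weeks after treatment.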

Assay [2] deals with Johnson grass (JG). As to the kind of experiment: Post-emergence herbicide test. Type of assay: in vivo, Sorgum helepense. Particulars: Sorghum halepense, 336 h, 4 lb/acre, two weeks after treatment. In a few lines:
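Visual injury or control scores taken 2 weeks after a post-emergence spray of pot-grown plants. Application was 8 lbs/acre (or 4 lbs/acre) in 38 gal/acre. Plants were held in the greenhouse with sub-irrigation only.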

The test system of assay [3] is Barnyard grass (BG). As to the kind of experiment: Post-emergence herbicide test. The format is in vivo. Particulars: Echinochloa crus-galli, 336 h, 4 lb/acre, two weeks after treatment. In a few lines:
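Greenhouse pot-grown barnyard grass seedlings sprayed post-emergence at 8 lbs active compound per acre (some at 4 lbs/acre) in 38 gallons per acre, then sub-irrigated. Injury or control rated visually two weeks after treatment.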

Assay [4] relates to Amaranth pigweed (PW). As to the kind of experiment: Post-emergence herbicide test. Particulars: 336 h, two weeks after treatment; for pest or weed control at 2241.7 g/ha: 2 lb/acre; for pest or weed control at 4483.4 g/ha: 4 lb/acre. The format is in vivo, Amaranthus retroflexus. The procedure: Amaranth pigweed (PW)--Amaranthus retroflexus
(§1) All crop and weed species were planted individually in 3' plastic pots containing potting soil. Four seeds each of corn, cotton, and snapbeans were seeded to a depth equal to the diameter of the seed. All other species were surface seeded and sprinkled with screened soil in an amount sufficient to cover the seed. Immediately after planting, all pots were watered by sub-irrigation in greenhouse trays. Pots for the pre-emergence phase were seeded one day before treatment.
Planting dates for the post-emergence phase were varied so that all seedlings would reach the desired stage of development simultaneously. The proper stage of seedling development for treatment in the post-emergence phase is as follows:
Pigweed and turnips: 1 or 2 true leaves above visible cotyledons.
(§2) Compounds were tested at rates of application equivalent to 8 lbs. of actual compound per acre in a spray volume of 38 gallons per acre. Spray hood constants required to deliver the above volume are as follows:
(§3) Formulations for spray applications were prepared in 50 ml volumes with the following three components:
(§4) Formulations for the 4 lbs/acre rate were prepared by adjusting the amount of active ingredient accordingly.
(§5) Spray applications were made in a hood containing a removable belt and fixed spray nozzle. For passage through the spray hood, one pot of each specie (pre-emergence phase) was placed on the rear half of the flat. Treatments were removed to the greenhouse after spraying. Watering during the observation period was done only by sub-irrigation.
(§6) Two weeks after treatment, pre- and post-emergence injury or control was visually rated, and the results were as shown in the following tables. Pre-emergence data are provided in TABLE III and post-emergence data are provided in TABLE IV, for compounds having the formula illustrated in TABLE I. Correspondingly, pre-emergence and post-emergence data, respectively, are set forth in TABLES V AND VI, for compounds having the formula illustrated in TABLE II.

The test system of assay [5] is Turnip (TP). As to the kind of experiment: Post-emergence herbicide test. Type of assay: in vivo, Brassica sp. Particulars: Brassica rapa, post-emergence, 336 h, two weeks after treatment; for pest or weed control at 2241.7 g/ha: 2 lb/acre; for pest or weed control at 4483.4 g/ha: 4 lb/acre. In a few lines: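 A greenhouse post-emergence herbicide test on turnip. Seeds were sown on the surface of potting soil in 3' plastic pots, lightly covered with screened soil and watered from below. Planting was timed so seedlings had 1 or 2 true leaves above the cotyledons at spraying, done in a hood with a fixed nozzle. Control or injury was scored by eye after two weeks.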

The subject of assay [6] is Cotton (CT). As to the kind of experiment: Post-emergence herbicide test. The format is in vivo, Gossypium hirsutum var. DPL smooth leaf. Particulars: Gossypium hirsutum, post-emergence, 336 h, two weeks after treatment; for pest or weed control at 4483.4 g/ha: 4 lb/acre. The essentials:
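This greenhouse post-emergence test measured how well spray treatments controlled cotton. Seedlings of Gossypium hirsutum var. DPL smooth leaf, with expanded cotyledons and a first true leaf 1' in length, were sprayed with 50 ml formulations in a belt-fed spray hood. They were then returned to the greenhouse and watered only by sub-irrigation. Injury was scored visually as % control after two weeks.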

Assay [7] concerns Corn (CN). As to the kind of experiment: Post-emergence herbicide test. Type of assay: in vivo. Particulars: Zea mays, 336 h, two weeks after treatment; for pest or weed control at 4483.4 g/ha: 4 lb/acre. In a few lines:
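Greenhouse seedlings grown in potting soil and sprayed post-emergence at 8 lbs compound/acre (formulations also made for 4 lbs/acre) in 38 gallons/acre spray volume. Watering by sub-irrigation only. Injury or control rated visually two weeks after treatment.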

Assay [8] deals with Bean (BN). The assay can be described thus: Post-emergence herbicide test. Type of assay: in vivo, Phaseolus vulgaris var. Black Valentine. Particulars: Phaseolus vulgaris, post-emergence, 336 h, two weeks after treatment; for pest or weed control at 4483.4 g/ha: 4 lb/acre. The essentials:
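Bean seedlings (Phaseolus vulgaris var. Black Valentine) were grown in potting soil in 3' pots until the primary leaves expanded. They were then sprayed under a hood with a removable belt and fixed nozzle, using 50 ml formulations. Afterward they were returned to the greenhouse and watered only by sub-irrigation. Percent control was judged visually two weeks after treatment.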

In assay [9] the test system is Crabgrass (CG). As to the kind of experiment: Pre-emergence herbicide test. The format is in vivo, Digitaria sanquinalis. Particulars: Digitaria sanguinalis, pre-emergence, 336 h, two weeks after treatment. In a few lines: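 Crabgrass (Digitaria sanquinalis) was surface seeded in 3' plastic pots of potting soil, covered with screened soil, and watered by sub-irrigation in greenhouse trays. Pots were seeded one day before spraying in a hood with a moving belt and fixed nozzle. Plants stayed in the greenhouse on sub-irrigation, and pre-emergence control was rated visually two weeks after treatment.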

The subject of assay [10] is Johnson grass (JG). As to the kind of experiment: Pre-emergence herbicide test. The format is in vivo, Sorgum helepense. Particulars: Sorghum halepense, 336 h, two weeks after treatment. In a few lines: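 Visual injury or control rating two weeks post-treatment, after pre-emergence spray of 8 or 4 lbs active per acre (38 gal/acre) onto pots sown the previous day. Greenhouse watering by sub-irrigation only.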

Assay [11] relates to Barnyard grass (BG). As to the kind of experiment: Pre-emergence herbicide test. Type of assay: in vivo. Particulars: Echinochloa crus-galli, 336 h, two weeks after treatment. In a few lines: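 Greenhouse pre-emergence spray test: pots seeded one day before treatment received compound at rates of 8 or 4 lb/acre (38 gal/acre). Visual injury/control scores for Echinochloa crus-galli taken at two weeks, with watering by sub-irrigation only.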

The subject of assay [12] is Turnip (TP). As to the kind of experiment: Pre-emergence herbicide test. The format is in vivo, Brassica sp. Particulars: Brassica rapa, pre-emergence, 336 h, two weeks after treatment. The essentials:
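In this pre-emergence greenhouse test, turnip was seeded on the surface of potting soil in 3' plastic pots, lightly covered with screened soil, and watered from below. One day later the pots were sprayed in a belt-fed spray hood. Watering continued only by sub-irrigation, and percent control was visually scored two weeks after treatment.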

For assay [13], the system named is Cotton (CT). The assay can be described thus: Pre-emergence herbicide test. Particulars: Gossypium hirsutum, 336 h, two weeks after treatment. The format is in vivo, Gossypium hirsutum var. DPL smooth leaf. The method, then: Cotton (CT)--Gossypium hirsutum var. DPL smooth leaf
as §1, §2, §3, §4, §5, §6

Assay [14] deals with Corn (CN). As to the kind of experiment: Pre-emergence herbicide test. Type of assay: in vivo. Particulars: Zea mays, 336 h, two weeks after treatment. The method, then:
as §1, §2, §3, §4, §5, §6

Assay [15] deals with Bean (BN). The assay can be described thus: Pre-emergence herbicide test. Particulars: Phaseolus vulgaris, 336 h, two weeks after treatment. The format is in vivo, Phaseolus vulgaris var. Black Valentine. The method, then: Bean (BN)--Phaseolus vulgaris var. Black Valentine
as §1, §2, §3, §4, §5, §6

As for `CCC(C)=CCSc1nnc(NC(=O)NC)s1` [Example 50], the pest or weed control at 4483.4 g/ha came out at 50% in assay [1]; 30% in assay [2]; 20% in [3]; 90% in assay [4]; 80% in assay [5]; 80% in assay [6]. The values for the pest or weed control at 4483.4 g/ha in assay [7] and in [8] were 30% and 100%, respectively. Also, the pest or weed control at 2241.7 g/ha in assay [4] is 90%; in assay [5] it was 60%.
Take `CNC(=O)Nc1nnc(SCCC(C)C)s1` [Example 51]: the pest or weed control at 4483.4 g/ha in assay [1] amounted to 60%; in assay [2], 40%; in [3], 70%; in assay [4] it was 90%; in assay [5] it was 90%; in [6], 100%. Moreover, the values for the pest or weed control at 4483.4 g/ha in assay [7] and in [8] were 50% and 100%, respectively. The pest or weed control at 2241.7 g/ha in assay [4] came out at 90%; in assay [5], 80%.
Turning to `CNC(=O)Nc1nnc(SCCC#N)s1` [Example 52], the pest or weed control at 4483.4 g/ha in assay [1] was determined as 70%; in [2], 20%; in assay [3], 20%; in assay [4] it was 80%; in assay [5] it was 80%; in assay [6], 100%. Besides, the pest or weed control at 4483.4 g/ha in assay [7] and in assay [8] was 100% each time.
For `CNC(=O)Nc1nnc(SCCc2ccccc2)s1` [Example 53], the pest or weed control at 4483.4 g/ha was 60% in assay [1]; 30% in [2]; 20% in assay [3]; 90% in assay [4]; 90% in assay [5]; 100% in assay [6]. Besides, the pest or weed control at 4483.4 g/ha in assay [7] and in assay [8] was 100% in each case. The pest or weed control at 2241.7 g/ha in [4] was 90%; in assay [5], 70%.
As to `CNC(=O)Nc1nnc(SCC(C)=O)s1` [Example 54], the pest or weed control at 4483.4 g/ha turned out to be 50% in assay [1]; 30% in [2]; 30% in assay [3]; 90% in assay [4]; 80% in assay [5]; 90% in [6]. The pest or weed control at 4483.4 g/ha in assay [7] amounted to 30%; in assay [8], 100%. Also, the pest or weed control at 2241.7 g/ha in assay [4] and in assay [5] was 60% each time.
`CNC(=O)Nc1nnc(SCc2ccc([N+](=O)[O-])cc2)s1` [Example 55]: the pest or weed control at 4483.4 g/ha was 40% in [1]; 30% in assay [2]; 20% in [3]; 90% in assay [4]; 90% in assay [5]; 50% in assay [6]. Further, the values for the pest or weed control at 4483.4 g/ha in assay [7] and in assay [8] were 20% and 100%, respectively. Further, the pest or weed control at 2241.7 g/ha was found to be 90% in assay [4] and 60% in assay [5].
For the molecule `CNC(=O)Nc1nnc(SCC(=O)OC)s1` [Example 56], the pest or weed control at 4483.4 g/ha in assay [1] came out at 30%; in assay [2], 20%; in assay [3], 20%; in [4], 60%; in [5], 70%; in assay [6] it was 60%. Also, the pest or weed control at 4483.4 g/ha worked out at 30% in assay [7] and 50% in assay [8].
For `CCS(=O)(=O)c1nnc(NC(=O)NC)s1` [Example 81], the pest or weed control in assay [9] (2 lb/acre) is 90%; in [1] (2 lb/acre), 100%; in [7] (2 lb/acre) it was 100%. Besides, the pest or weed control at 4483.4 g/ha in [9] (4 lb/acre) was 90%; in [10] (4 lb/acre), 40%; in assay [11] (4 lb/acre) it was 60%; in assay [12] (4 lb/acre), 80%; in assay [13] (4 lb/acre), 100%; in assay [14] (4 lb/acre) it was 0%. Further, the pest or weed control at 4483.4 g/ha in [15] (4 lb/acre) came out at 60%; in assay [1] it was 100%; in assay [2] it was 100%; in assay [3] it was 80%; in [5], 100%; in assay [6] it was 100%. Moreover, the results for the pest or weed control at 4483.4 g/ha in assay [7] and in assay [8] were 50% and 100%, respectively. The pest or weed control at 2241.7 g/ha in assay [10] (2 lb/acre) came to 40%; in [11] (2 lb/acre), 60%; in assay [12] (2 lb/acre), 80%; in assay [13] (2 lb/acre), 100%; in assay [14] (2 lb/acre) it was 0%; in [15] (2 lb/acre), 60%. Further, the pest or weed control at 2241.7 g/ha in assay [5] was 100%; in [6] (2 lb/acre), 90%; in [8] (2 lb/acre), 100%.
